From ChEMBL document CHEMBL5154820 (Eur J Med Chem, 2022)
Active and inactive are the calls of the source. The rule behind the calls is not given here.

Experiments:
[1] = system: HeLa; assay: Antiproliferation activity against human HeLa cells assessed as reduction in cell growth measured after 48 to 72 hrs by CCK-8 assay; assay type: functional, cell-based
[2] = system: SiHa; assay: Antiproliferation activity against human SiHa cells assessed as reduction in cell growth measured after 48 to 72 hrs by CCK-8 assay; assay type: functional, cell-based
[3] = Antiproliferation activity against human MS751 cells assessed as reduction in cell growth measured after 48 to 72 hrs by CCK-8 assay; assay type: functional, cell-based
[4] = target: Tubulin (Sus scrofa, UniProt P02554+P02550); assay: Inhibition of pig brain tubulin polymerization by spectrophotometeric analysis; parameters: species or system Sus scrofa domesticus
[5] = target: T1, Tubulin beta (Homo sapiens) (UniProt P68371+Q9H4B7+Q13509+P04350+Q3ZCM7+P07437+Q13885+Q9BVA1+Q9BUF5+A6NNZ2); assay: Binding affinity to beta-tubulin colchicine binding site in human HeLa cells assessed as decrease of adduct formation by measuring gray value measured at 25 uM incubated for 2 hrs followed by addition of EBI measured after 1.5 hrs by EBI competition based Western blotting analysis; assay type: cell-based; settings: time 3.5 hrs
[6] = target: T1, Tubulin beta (Homo sapiens); assay: Binding affinity to beta-tubulin colchicine binding site in human HeLa cells assessed as decrease of adduct formation by measuring gray value measured at 5 uM incubated for 2 hrs followed by addition of EBI measured after 1.5 hrs by EBI competition based Western blotting analysis; assay type: cell-based; settings: time 3.5 hrs
[7] = Retention time of the compound; assay type: physicochemical
[8] = species: Bos taurus; assay: Inhibition of calf brain tubulin polymerization upto 50 uM measured after 40 mins by spectrophotometric analysis
[9] = system: A549; assay: Antiproliferation activity against human A549 cells assessed as reduction in cell growth; assay type: functional, cell-based
[10] = system: HCT-116; assay: Antiproliferation activity against human HCT-116 cells assessed as reduction in cell growth; assay type: functional, cell-based

| SMILES | IC50 [1] [nM] | IC50 [2] [nM] | IC50 [3] [nM] | IC50 [4] [nM] | also measured |
| --- | --- | --- | --- | --- | --- |
| COc1cc(-c2ncncc2-c2ccc3c(c2)OCO3)cc(OC)c1OC | 1160 | 5400 | 1360 | – | – |
| COc1ccc(-c2cncnc2-c2cc(OC)c(OC)c(OC)c2)cc1O | 280 | 2750 | 830 | 13400 | – |
| COc1cc(-c2ncncc2-c2ccc(Br)cc2)cc(OC)c1OC | 500 | 2960 | 2840 | – | – |
| CC[C@]1(O)C[C@H]2CN(CCc3c([nH]c4ccccc34)[C@@](C(=O)OC)(c3cc4c(cc3OC)N(C=O)[C@H]3[C@@](O)(C(=O)OC)[C@H](OC(C)=O)[C@]5(CC)C=CCN6CC[C@]43[C@@H]65)C2)C1 | – | – | – | – | Activity [5]: 0.98; Activity [6]: 1.12 |
| COc1cc(-c2ncncc2-c2ccc(OCC(F)(F)F)cc2)cc(OC)c1OC | 10200 | 33300 | 9000 | – | – |
| COc1cc(-c2ncncc2-c2ccc(B(O)O)cc2)cc(OC)c1OC | 4000 | 17500 | 32400 | – | – |
| CNC(=O)c1ccc(-c2cncnc2-c2cc(OC)c(OC)c(OC)c2)cc1 | 1470 | 10900 | 13200 | – | – |
| COc1ccc(-c2cncnc2-c2cc(OC)c(OC)c(OC)c2)cc1F | 500 | 3340 | 1100 | 29900 | – |
| COc1cc2c(c(OC)c1OC)-c1ccc(OC)c(=O)cc1[C@@H](NC(C)=O)CC2 [COLCHICINE] | 42 | 45 | 35 | – | – |
| COc1ccc(-c2cncnc2-c2cc(OC)c(OC)c(OC)c2)cc1Cl | 320 | 1330 | 790 | 53100 | Retention_time [7]: 2.23 min |
| CCOC(=O)Oc1cc(-c2cncnc2-c2cc(OC)c(OC)c(OC)c2)ccc1OC | 650 | 1890 | 780 | > 100000 | – |
| CCOc1ccc(-c2cncnc2-c2cc(OC)c(OC)c(OC)c2)cc1C(F)(F)F | 790 | 20000 | 25000 | > 100000 | – |
| COc1ccc(-c2cncnc2-c2cc(OC)c(OC)c(OC)c2)cc1 | 1140 | 2850 | 1300 | 71200 | – |
| COc1cc(-c2ncncc2-c2ccc(OC(C)C)cc2)cc(OC)c1OC | 8360 | 9970 | 33900 | – | – |
| CCSc1ccc(-c2cncnc2-c2cc(OC)c(OC)c(OC)c2)cc1 | 370 | 1030 | 1560 | – | – |
| COc1cc(-c2ncncc2-c2ccc3cc[nH]c3c2)cc(OC)c1OC | 770 | 2180 | 1090 | 62800 | – |
| COc1ccc(-c2cncnc2-c2cc(OC)c(OC)c(OC)c2)nc1 | 470 | 1750 | 830 | 63700 | – |
| COc1cc(-c2ncncc2-c2ccc(SC)cc2)cc(OC)c1OC | 220 | 560 | 130 | 9300 | – |
| COc1cc(-c2ncncc2-c2ccc(C(N)=O)cc2)cc(OC)c1OC | > 100000 | > 100000 | > 100000 | – | – |
| CCOc1ccc(-c2cncnc2-c2cc(OC)c(OC)c(OC)c2)cc1F | 470 | 800 | 750 | 17100 | – |
| COc1cc(-c2ncncc2-c2cccc3ccccc23)cc(OC)c1OC | – | – | – | – | Activity [8]: Active; IC50 [9]: 2500 nM; IC50 [10]: 2500 nM |
| COc1cc(-c2ncncc2-c2ccc(C(=O)N(C)C)cc2)cc(OC)c1OC | 790 | 20200 | 1370 | – | – |
| CCOc1ccc(-c2cncnc2-c2cc(OC)c(OC)c(OC)c2)cc1 | 250 | 640 | 220 | 3700 | – |
